Measurements: patent US20120190620A1, “METHODS TO IDENTIFY TARGETS AND MOLECULES REGULATING PURINOSOMES AND THEIR USES” (priority 2010, published 2012)

Key:
Format in all cases: cell-based, human
[1] = tested on: HeLa cells; assay: Purinosome dynamics DMR screen, sequential order molecule, TBB, DMAT; conditions: agonist library; order agonist, TBB, DMAT; FIG. 4
Description: A library of agonists for various different GPCRs were used to individually pretreat a confluent layer of Hela cells for about one hour, before sequential stimulation with TBB and DMAT, respectively. The responses were monitored using Epic® system.
(A) The dose-dependent DMR signals of Hela cells induced by alpha2A agonist clonidine. (B) The TBB DMR signal of Hela cells after pretreated with clonidine at different doses. (C) The dose-dependent DMR signals of pertussis toxin (PTX)-pretreated Hela cells induced by alpha2A agonist clonidine. (D) The TBB DMR signal of the PTX-pretreated Hela cells after stimulated with clonidine at different doses. The TBB concentration was 20 μM in both (C) and (D). The clonidine pretreatment occurred about one-hour before the TBB stimulation.
(§1) Epic® wavelength interrogation system (Corning Inc., Corning, N.Y.) was used for whole cell sensing. This system consists of a temperature-control unit, an optical detection unit, and an on-board liquid handling unit with robotics. The detection unit is centered on integrated fiber optics, and enables kinetic measures of cellular responses with a time interval of ˜15 sec. The compound solutions were introduced by using the on-board liquid handling unit (i.e., pippetting).
(§2) For biosensor cellular assays, compound solutions were made by diluting the stored concentrated solutions with the HBSS (1× Hanks balanced salt solution, plus 20 mM Hepes, pH 7.1), and transferred into a 384 well polypropylene compound storage plate to prepare a compound source plate. Two compound source plates were made separately when a two-step assay was performed. In parallel, the cells were washed twice with the HBSS and maintained in 30 μl of the HBSS to prepare a cell assay plate. Both the cell assay plate and the compound source plate(s) were then incubated in the hotel of the reader system. After incubation the baseline wavelengths of all biosensors in the cell assay microplate were recorded and normalized to zero. Afterwards, a 2 to 10 min continuous recording was carried out to establish a baseline, and to ensure that the cells reached a steady state. Cellular responses were then triggered by transferring 10 μl of the compound solutions into the cell assay plate using the on-board liquid handler.
(§3) All studies were carried out at a controlled temperature (28° C.). At least two independent sets of experiments, each with at least three replicates, were performed.
(§4) The upstream signaling pathways linking to the purinosome is unknown at the present time. To identify cellular targets and pathways that are involved in regulating purinosome dynamics, a library of agonists for a great number of G protein-coupled receptors and membrane bound receptor tyrosine kinases was made in house, and each agonist was used to stimulate a confluent layer of Hela cells, cultured using high initial seeding number (25k per well for 384 well Epic® cell culture compatible biosensor microplates) in purine rich medium (i.e., regular 10% FCS or FBS). The concentrations for all small organic molecules were 10 micromolar, whereas 1 micromolar for all small peptides, and 100 nanomolar for all protein factors (molecular weight >15k Da). The cellular responses to each agonist were recorded for about 1 hour, and used to determine the functional expression of their corresponding cognate receptor(s).

[2] = tested on: HeLa cells; assay: Purinosome dynamics DMR screen, sequential order molecule, DMAT, TBB; conditions: for modulation of the DMAT signal / modulation of the TBB signal: adrenergic receptor ligand library, order ligand, TBB, FIG. 5, DMAT
Description: A library of agonists for various different GPCRs were used to individually pretreat a confluent layer of Hela cells for about one hour, before sequential stimulation with DMAT and TBB, respectively. The responses were monitored using Epic® system.
A library of molecules targeting endogenous alpha2A and beta2 adrenergic receptors were used to individually pretreat a confluent layer of Hela cells for about one hour, before sequential stimulation with DMAT and TBB, respectively. The responses were monitored using Epic® system.
as §1, §2, §3, §4
To examine the receptor whose signaling is involved in regulating the purinosome dynamics, Hela cells were pretreated individually with each agonist for about one hour, followed by sequential stimulation with DMAT (20 micromolar) and TBB (25 micromolar), each step about 1 hour.

[3] = tested on: HeLa cells; assay: Epic label-free biosensor DMR assay of compound-induced signals in HeLa cells; conditions: for effect of pretreatment on the sequential DMAT response / effect of pretreatment on the sequential TBB response: HeLa cells pretreated with the compound about 1 hr; for effect of pretreatment on the sequential DMAT response: then DMAT; for effect of pretreatment on the sequential TBB response: then TBB; for DMR signal induced by CK2 inhibitor: HeLa cells, regular serum medium, high initial seeding number
Description: HeLa cells were obtained from American Type Cell Culture (Manassas, Va.). This cervical cancer cell line was maintained in regular serum medium (i.e., minimum essential medium (MEM) (Invitrogen) supplemented with 10% fetal bovine serum (FBS) and 1% Penicillin/streptomycin). To investigate the effects of purine depletion on the purinosome formation and dissociation, HeLa cells were maintained for at least two passages in “purine-depleted medium” prior cell assays. The purine depleted medium is a medium consisting of Roswell Park Memorial Institute 1640 (RPMI 1640) supplemented with dialyzed 5% FBS […]. FBS was dialyzed against 0.9% NaCl at 4° C. for ˜2 days using a 25 kDa MWCO dialysis membrane to remove purines. This process completely removes the purines normally present in FBS.
Cells were typically grown using ˜1 to 2×10^4 cells per well at passage 3 to 15 suspended in 50 μl of the corresponding culture medium in the biosensor microplate, and were cultured at 37° C. under air/5% CO2 for ˜1 day. The confluency for all cells at the time of assays was ˜100%.
as §1
The RWG biosensor is capable of detecting minute changes in local index of refraction near the sensor surface. Since the local index of refraction within a cell is a function of density and its distribution of biomass (e.g., proteins, molecular complexes), the biosensor exploits its evanescent wave to non-invasively detect ligand-induced dynamic mass redistribution in native cells. The evanescent wave extends into the cells and exponentially decays over distance, leading to a characteristic sensing volume of ˜150 nm, implying that any optical response mediated through the receptor activation only represents an average over the portion of the cell that the evanescent wave is sampling. The aggregation of many cellular events downstream the receptor activation determines the kinetics and amplitudes of a ligand-induced DMR.
as §2, §3

[4] = GPCR/RTK agonist library, pretreated about one hour, order agonist, DMAT (20 micromolar), TBB (25 micromolar), FIG. 3

In the case of `CS(=O)(=O)Nc1c(O)ccc2c1CCCC2C1=NCCN1` (stereo not drawn) [A61603], the “modulation of the TBB DMR signal” value [1] is reported as “selectively potentiate”, the “modulation of the DMAT DMR signal” value [2, 4] is reported as “suppress” and the “modulation of the TBB DMR signal” value [2, 4] is reported as “potentiate”. The “modulation of the DMAT signal” value [2] was “suppress” and the “modulation of the TBB signal” value [2] was “potentiate”.

With `N=C(CC(O)COc1ccccc1-c1ccccc1)N1CCCCC1` (stereo not drawn) [AH11110A] the “modulation of the DMAT signal” value [2] was “potentiate” and the “modulation of the TBB signal” value [2] was “suppress”.

`Nc1ncnc2c1ncn2[C@@H]1O[C@H](COP(=O)(O)OP(=O)(O)OP(=O)(O)O)[C@@H](O)[C@H]1O` [ATP] was tested, and the “modulation of the TBB DMR signal” value [1] was “selectively potentiate” and the “modulation of the DMAT DMR signal” value [2, 4] was “selectively suppress”.

For `OC[C@H]1O[C@@H](n2cnc3cc(Cl)c(Cl)cc32)[C@H](O)[C@@H]1O` [DRB, 5,6-Dichlorobenzimidazole 1-β-D-ribofuranoside], the “effect of pretreatment on the sequential DMAT response” value [3] was “desensitized”, the “effect of pretreatment on the sequential TBB response” value [3] was “slightly potentiated” and the “DMR signal induced by CK2 inhibitor” value [3] was “DMR signals similar to the DMAT response”.

`O=C(O)c1cc([N+](=O)[O-])ccc1NCCCc1ccccc1` [NPPB] was tested, and the “modulation of the DMAT DMR signal” value [2, 4] was “potentiate” and the “modulation of the TBB DMR signal” value [2, 4] was “no or little impact”.

With `CCCCC[C@H](O)/C=C/[C@H]1C(=O)C[C@H](O)[C@@H]1C/C=C\CCCC(=O)O` [PGD2, prostaglandin D2] the “modulation of the TBB DMR signal” value [1] was “selectively suppress”, the “modulation of the DMAT DMR signal” value [2, 4] was “potentiate” and the “modulation of the TBB DMR signal” value [2, 4] was “no or little impact”.

With `CCCCC[C@H](O)/C=C/[C@H]1[C@H](O)CC(=O)[C@@H]1C/C=C\CCCC(=O)O` [PGE2, peostaglandin E2] the “modulation of the TBB DMR signal” value [1] was “selectively suppress”, the “modulation of the DMAT DMR signal” value [2, 4] was “potentiate” and the “modulation of the TBB DMR signal” value [2, 4] was “no or little impact”.

`CC(C)(Cc1c[nH]c2ccc(Cl)cc12)NCCOc1ccccc1OCC1CC1` [RS17053] was tested, and the “modulation of the DMAT signal” value [2] was “potentiate” and the “modulation of the TBB signal” value [2] was “suppress”.

In the case of `C[C@H](N)Cn1ccc2cc(F)c(Cl)cc21` [Ro600175], the “modulation of the DMAT DMR signal” value [1] is reported as “selectively potentiate”, the “modulation of the DMAT DMR signal” value [2] is reported as “potentiate” and the “modulation of the TBB DMR signal” value [2] is reported as “no or little impact”.

`CCCCCCCCCCCCC/C=C/[C@@H](O)[C@@H](N)COP(=O)(O)O` [S1P, Sphingosine-1-phosphate] was tested, and the “modulation of the TBB DMR signal” value [1] was “selectively potentiate” and the “modulation of the DMAT DMR signal” value [2, 4] was “selectively suppress”.

With `Brc1c(Br)c(Br)c2[nH]cnc2c1Br` [TBBz, 4,5,6,7-tetrabromobenzimidazole] the “type of CK2 inhibitor by label-free biosensor cellular assay” value [3] was “purinosome disruption agent”.

With `O=C(O)/C=C/c1cc(Br)c(Br)c(Br)c1Br` [TBCA, Tetrabromocinnamic Acid] the “type of CK2 inhibitor by label-free biosensor cellular assay” value [3] was “purinosome promoting agent”, the “effect of pretreatment on the sequential DMAT response” value [3] was “desensitized” and the “effect of pretreatment on the sequential TBB response” value [3] was “slightly potentiated”. The “DMR signal induced by CK2 inhibitor” value [3] was “DMR signals similar to the DMAT response”.

For `O=c1ccn([C@@H]2O[C@H](COP(=O)(O)OP(=O)(O)O)[C@@H](O)[C@H]2O)c(=O)[nH]1` [UDP], the “modulation of the TBB DMR signal” value [1] was “selectively potentiate” and the “modulation of the DMAT DMR signal” value [2, 4] was “selectively suppress”.

`Brc1c(NC2=NCCN2)ccc2nccnc12` [UK14304] was tested, and the “modulation of the DMAT signal” value [2] was “suppress” and the “modulation of the TBB signal” value [2] was “potentiate”.

In the case of `Clc1ccc2c(c1)C(N1CCNCC1)=Nc1ccccc1O2` [amoxapine], the “modulation of the DMAT signal” value [2] is reported as “potentiate” and the “modulation of the TBB signal” value [2] is reported as “suppress”.

For `O=c1cc(-c2ccc(O)cc2)oc2cc(O)cc(O)c12` [apigenin], the “DMR signal induced by CK2 inhibitor” value [3] was “DMR signals similar to the DMAT response”.

For `c1ccc2c(c1)[I+]c1ccccc1-2` [diphylpheneiodonium], the “modulation of the DMAT signal” value [2] was “potentiate” and the “modulation of the TBB signal” value [2] was “suppress”.

`CC(CCc1ccc(O)cc1)NCCc1ccc(O)c(O)c1` (stereo not drawn) [dobutamine] was tested, and the “modulation of the DMAT signal” value [2] was “specifically suppress”.

For `NCCc1ccc(O)c(O)c1` [dopamine], the “modulation of the TBB DMR signal” value [1] was “selectively potentiate”, the “modulation of the DMAT DMR signal” value [2, 4] was “suppress” and the “modulation of the TBB DMR signal” value [2, 4] was “potentiate”. The “modulation of the DMAT signal” value [2] was “suppress” and the “modulation of the TBB signal” value [2] was “potentiate”.

With `N=C(N)N/N=C/c1c(Cl)cccc1Cl` [guanabenz] the “modulation of the DMAT signal” value [2] was “suppress” and the “modulation of the TBB signal” value [2] was “potentiate”.

`N=C(N)NC(=O)Cc1c(Cl)cccc1Cl` [gufacine] was tested, and the “modulation of the DMAT signal” value [2] was “suppress” and the “modulation of the TBB signal” value [2] was “potentiate”.

With `CC(C(O)c1ccc(O)cc1)N1CCC(Cc2ccccc2)CC1` (stereo not drawn) [ifenprodil] the “modulation of the DMAT signal” value [2] was “potentiate” and the “modulation of the TBB signal” value [2] was “suppress”.

In the case of `CCC(NC(C)C)C(O)c1ccc(O)c(O)c1` (stereo not drawn) [isoetharine], the “modulation of the DMAT signal” value [2] is reported as “specifically suppress”.

For `CC(C)NCC(O)c1ccc(O)c(O)c1` (stereo not drawn) [isoproterenol], the “modulation of the DMAT signal” value [2] was “specifically suppress”.

For `CNCCCC12CCC(c3ccccc31)c1ccccc12` [maprotiline], the “modulation of the DMAT signal” value [2] was “potentiate” and the “modulation of the TBB signal” value [2] was “suppress”.

With `CC(N)C(O)c1ccc(O)c(O)c1` (stereo not drawn) [methylnorephrine] the “modulation of the DMAT signal” value [2] was “suppress” and the “modulation of the TBB signal” value [2] was “potentiate”.

`c1ccc2c(CC3=NCCN3)cccc2c1` [naphazoline] was tested, and the “modulation of the DMAT signal” value [2] was “suppress” and the “modulation of the TBB signal” value [2] was “potentiate”.

`NC[C@H](O)c1ccc(O)c(O)c1` [norepinephrine] was tested, and the “modulation of the DMAT signal” value [2] was “suppress” and the “modulation of the TBB signal” value [2] was “potentiate”.

With `C1COC(NC(C2CC2)C2CC2)=N1` [rilmenidine] the “modulation of the DMAT signal” value [2] was “suppress” and the “modulation of the TBB signal” value [2] was “potentiate”.

With `Clc1ccc2nsnc2c1NC1=NCCN1` [tizanidine] the “modulation of the DMAT signal” value [2] was “suppress” and the “modulation of the TBB signal” value [2] was “potentiate”.

In the case of `Cc1cccc(C)c1N=C1NCCCS1` [xylazine], the “modulation of the DMAT signal” value [2] is reported as “suppress” and the “modulation of the TBB signal” value [2] is reported as “potentiate”.

For “EGF: epidermal growth factor, the EGFR agonist (NSDSECPLSHDGYCLHDGVCMYIEALDKYACNCVVGYIGERCQYRDLKWWELR; not fully specified; Epidermal growth factor; UniProt P01133 971-1023, looked up)”, the “modulation of the DMAT DMR signal” value [1] was “selectively suppress”.

In the case of “HGF: hepatocyte growth factor, the HGFR agonist”, the “modulation of the TBB DMR signal” value [1] is reported as “selectively potentiate”.

For “IGF1: insulin-like growth factor 1, the IGF1R agonist”, the “modulation of the TBB DMR signal” value [1] was “selectively potentiate”.
